Experimental data reported in patent publication US20160083391A1, “TRICYCLIC PIPERAZINE DERIVATIVE” (Sunovion Pharmaceuticals Inc., priority 2014, published 2016).

The compounds below were run on PDE1 (assay: In vitro HTRF PDE1 inhibition assay). Conditions: HTRF cGMP assay, 100 nM cyclic GMP, PDE (1A3, 1B or 1C) with calmodulin, 45 minutes at 37° C.; isoform of the tabulated values not stated.
Assay type: biochemical
Method in brief: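 HTRF cGMP competition assay: PDE1A3, 1B or 1C with calmodulin acting on 100 nM cGMP in 1% DMSO, pH 7.4 buffer with Ca2+ and Mg2+, 45 min at 37 °C. Remaining cGMP detected with d2-cGMP and anti-cGMP cryptate (665/615 nm); IC50 reported as banded categories.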

Row | SMILES | IC50 [µM]
1 | O=c1c2cnn(-c3ccccc3)c2nc2n1CCNC2Cc1ccccc1 (racemic) [Compound I-9, (±)-9-Benzyl-1-phenyl-6,7,8,9-tetrahydropyrazino[1,2-a]pyrazolo[3,4-d]pyrimidin-4(1H)-one] | > 10
2 | COc1ccc(CN2CCn3c(nc4c(cnn4C4CCOC4)c3=O)C2)cc1 (racemic) [Compound I-219, (±)-8-(4-methoxybenzyl)-1-(tetrahydrofuran-3-yl)-6,7,8,9-tetrahydropyrazino[1,2-a]pyrazolo[3,4-d]pyrimidin-4(1H)-one] | > 10
3 | CN1CCn2c(nc3[nH]nc(Nc4ccccc4)c3c2=O)C1 [Compound I-49, 8-Methyl-3-(phenylamino)-6,7,8,9-tetrahydropyrazino[1,2-a]pyrazolo[3,4-d]pyrimidin-4(1H)-one] | > 10
4 | CC(C)c1n[nH]c2c(=O)n3c(nc12)C(C)N(Cc1ccccc1)CC3 (racemic) [Compound I-44, (±)-6-Benzyl-3-isopropyl-5-methyl-5,6,7,8-tetrahydropyrazino[1,2-a]pyrazolo[4,3-d]pyrimidin-10(1H)-one] | > 10
5 | COCCn1ncc2c(=O)n3c(nc21)CN(Cc1cccc(OC)c1)CC3 [Compound I-161, 8-(3-Methoxybenzyl)-1-(2-methoxyethyl)-6,7,8,9-tetrahydropyrazino[1,2-a]pyrazolo[3,4-d]pyrimidin-4(1H)-one] | > 10
6 | CC(C)c1nn(C)c2c(=O)n3c(nc12)C(C)NCC3 (racemic) [Compound I-14, (±)-3-Isopropyl-1,5-dimethyl-5,6,7,8-tetrahydropyrazino[1,2-a]pyrazolo[4,3-d]pyrimidin-10(1H)-one] | > 10
7 | CC(c1ccc(Cl)cc1)N1CCn2c(nc3c(cnn3C3CCCC3)c2=O)C1 (racemic) [Compound I-113, (±)-8-(1-(4-Chlorophenyl)ethyl)-1-cyclopentyl-6,7,8,9-tetrahydropyrazino[1,2-a]pyrazolo[3,4-d]pyrimidin-4(1H)-one] | 1 to 10
8 | CC1CNCc2nc3c(cnn3C3CCCC3)c(=O)n21 (racemic) [Compound I-99, (±)-1-cyclopentyl-6-methyl-6,7,8,9-tetrahydropyrazino[1,2-a]pyrazolo[3,4-d]pyrimidin-4(1H)-one] | > 10
9 | CC(C)c1nnc2c(=O)n3c(nn12)CN(Cc1ccccc1)CC3 [Compound I-223, 7-Benzyl-3-isopropyl-8,9-dihydro-6H-pyrazino[2,1-c][1,2,4]triazolo[3,4-f][1,2,4]triazin-11(7H)-one] | 1 to 10
10 | CC1c2nc3c(cnn3C)c(=O)n2CCN1C (racemic) [Compound I-20, (±)-1,8,9-Trimethyl-6,7,8,9-tetrahydropyrazino[1,2-a]pyrazolo[3,4-d]pyrimidin-4(1H)-one] | > 10
11 | CC(C)n1ncc2c(=O)n3c(nc21)CN(C)CC3 [Compound I-18, 1-Isopropyl-8-methyl-6,7,8,9-tetrahydropyrazino[1,2-a]pyrazolo[3,4-d]pyrimidin-4(1H)-one] | > 10
12 | CC(C)c1nn(C)c2c(=O)n3c(nc12)CNCC3 [Compound I-13, 3-Isopropyl-1-methyl-5,6,7,8-tetrahydropyrazino[1,2-a]pyrazolo[4,3-d]pyrimidin-10(1H)-one] | > 10
13 | CCC1Cn2c(nc3c(cnn3C(C)C)c2=O)CN1Cc1ccc(OC)cc1 (racemic) [Compound I-153, (±)-7-Ethyl-1-isopropyl-8-(4-methoxybenzyl)-6,7,8,9-tetrahydropyrazino[1,2-a]pyrazolo[3,4-a]pyrimidin-4(1H)-one] | 1 to 10
14 | O=c1c2cnn(C3CCCC3)c2nc2n1CCN(Cc1cnccn1)C2 [Compound I-203, 1-Cyclopentyl-8-(pyrazin-2-ylmethyl)-6,7,8,9-tetrahydropyrazino[1,2-a]pyrazolo[3,4-d]pyrimidin-4(1H)-one] | 1 to 10
15 | COCCn1ncc2c(=O)n3c(nc21)CN(Cc1cccc(Cl)c1)CC3 [Compound I-162, 8-(3-Chlorobenzyl)-1-(2-methoxyethyl)-6,7,8,9-tetrahydropyrazino[1,2-a]pyrazolo[3,4-d]pyrimidin-4(1H)-one] | 1 to 10
16 | O=c1c2cnc(C3CCCC3)n2nc2n1CCN(c1ccncc1)C2 [Compound I-185, 3-Cyclopentyl-7-(pyridin-4-yl)-8,9-dihydro-6H-imidazo[5,1-f]pyrazino[2,1-c][1,2,4]triazin-11(7H)-one] | 1 to 10
17 | CCCn1ncc2c(=O)n3c(nc21)CN(Cc1ccc(Cl)c(Cl)c1)CC3 [Compound I-165, 8-(3,4-Dichlorobenzyl)-1-propyl-6,7,8,9-tetrahydropyrazino[1,2-a]pyrazolo[3,4-d]pyrimidin-4(1H)-one] | 1 to 10
18 | O=c1c2cnc(C3CCCC3)n2nc2n1CCN(Cc1cncnc1)C2 [Compound I-193, 3-Cyclopentyl-7-(pyrimidin-5-ylmethyl)-8,9-dihydro-6H-imidazo[5,1-f]pyrazino[2,1-c][1,2,4]triazin-11(7H)-one] | 1 to 10

The remaining lines, values ahead:

Row | IC50 [µM] | SMILES
19 | 1 to 10 | COCCn1ncc2c(=O)n3c(nc21)CN(Cc1ccc(Cl)cc1)CC3 [Compound I-159, 8-(4-Chlorobenzyl)-1-(2-methoxyethyl)-6,7,8,9-tetrahydropyrazino[1,2-a]pyrazolo[3,4-d]pyrimidin-4(1H)-one]
20 | 1 to 10 | CCCn1ncc2c(=O)n3c(nc21)CN(Cc1ccccc1)CC3 [Compound I-54, 8-Benzyl-1-propyl-6,7,8,9-tetrahydropyrazino[1,2-a]pyrazolo[3,4-d]pyrimidin-4(1H)-one]
21 | 1 to 10 | CC(C)c1nnc2c(=O)n3c(nn12)CN(CCc1ccccc1)CC3 [Compound I-225, 3-Isopropyl-7-phenethyl-8,9-dihydro-6H-pyrazino[2,1-c][1,2,4]triazolo[3,4-f][1,2,4]triazin-11(7H)-one]
22 | 1 to 10 | O=C(c1ccc(Cl)cc1)N1CCn2c(nc3c(cnn3C3CCCC3)c2=O)C1 [Compound I-115, 8-(4-Chlorobenzoyl)-1-cyclopentyl-6,7,8,9-tetrahydropyrazino[1,2-a]pyrazolo[3,4-d]pyrimidin-4(1H)-one]
23 | < 1 | CC(C)Cn1ncc2c(=O)n3c(nc21)CN(c1cccc(Cl)c1)CC3 [Compound I-89, 8-(3-Chlorophenyl)-1-isobutyl-6,7,8,9-tetrahydropyrazino[1,2-a]pyrazolo[3,4-d]pyrimidin-4(1H)-one]
24 | < 1 | CC(C)n1ncc2c(=O)n3c(nc21)CN(Cc1ccccc1Cl)CC3 [Compound I-67, 8-(2-Chlorobenzyl)-1-isopropyl-6,7,8,9-tetrahydropyrazino[1,2-a]pyrazolo[3,4-d]pyrimidin-4(1H)-one]
25 | < 1 | CC(C)n1ncc2c(=O)n3c(nc21)CN(Cc1cccc(Cl)c1)CC3 [Compound I-70, 8-(3-Chlorobenzyl)-1-isopropyl-6,7,8,9-tetrahydropyrazino[1,2-a]pyrazolo[3,4-d]pyrimidin-4(1H)-one]
26 | < 1 | O=c1c2cnc(C3CC3)n2nc2n1CCN(c1ccc(Cl)cc1)C2 [Compound I-251, 7-(4-Chlorophenyl)-3-cyclopropyl-8,9-dihydro-6H-imidazo[5,1-f]pyrazino[2,1-c][1,2,4]triazin-11(7H)-one]
27 | < 1 | CCOc1cccc(N2CCn3c(nn4c(C5CCCC5)ncc4c3=O)C2)c1 [Compound I-180, 3-Cyclopentyl-7-(3-ethoxyphenyl)-8,9-dihydro-6H-imidazo[5,1-f]pyrazino[2,1-c][1,2,4]triazin-11(7H)-one]
